The values below come from the kinase profiling compilation of Christmann-Franck et al. (2016).

Where “and” joins values, the source holds several entries; their conditions need not be identical. Identical values can stand only once.

FRK (human), sequence (P42685 whole entry, looked up): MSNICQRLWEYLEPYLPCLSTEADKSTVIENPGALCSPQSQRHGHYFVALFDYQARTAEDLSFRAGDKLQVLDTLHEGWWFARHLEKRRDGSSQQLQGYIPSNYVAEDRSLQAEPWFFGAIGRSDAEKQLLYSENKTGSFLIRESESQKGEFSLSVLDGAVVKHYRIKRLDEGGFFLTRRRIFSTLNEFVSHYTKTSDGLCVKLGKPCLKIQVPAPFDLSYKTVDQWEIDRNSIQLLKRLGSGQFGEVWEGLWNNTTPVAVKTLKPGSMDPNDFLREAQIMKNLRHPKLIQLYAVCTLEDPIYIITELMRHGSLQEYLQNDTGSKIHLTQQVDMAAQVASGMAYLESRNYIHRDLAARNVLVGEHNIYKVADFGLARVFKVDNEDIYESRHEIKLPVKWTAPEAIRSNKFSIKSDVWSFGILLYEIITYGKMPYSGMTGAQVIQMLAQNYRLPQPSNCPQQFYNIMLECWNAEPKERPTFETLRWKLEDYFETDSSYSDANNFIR

For the first test, the target named is IKBKE (human) (UniProt Q14164). Kind of test: radiometric filter-binding kinase assay, Kinase HotSpot. The conditions noted are these: compound 0.5 µM; ATP 10 µM.
As a reminder, the residual activity is the signal under treatment as a percentage of the control signal. For the molecule `N#CC(C#N)=C(N)/C(C#N)=C/c1ccc(O)cc1`, the residual activity amounted to 91%.
On the same count and under the same terms, as for `COc1cc2ncnc(Nc3cccc(Cl)c3)c2cc1OC`, the figure is 101%; as for `O=C1NC(=O)c2c1c1c3ccccc3n3c1c1c2c2ccccc2n1C1CCC3O1`, 23.9%.

For the next test, the target named is PAK1 (human) (UniProt Q13153). The test is described as above. As to conditions: compound 0.5 µM; ATP 10 µM.
With `N#CC(C#N)=C(N)/C(C#N)=C/c1ccc(O)cc1`, the residual activity was 90.9%.
In the case of `COc1cc2ncnc(Nc3cccc(Cl)c3)c2cc1OC`, the residual activity was 89.3%.
For the molecule `O=C1NC(=O)c2c1c1c3ccccc3n3c1c1c2c2ccccc2n1C1CCC3O1`, the residual activity was 23.6%.

For the next test, the target named is MAP4K2 (human) (UniProt Q12851). Described as above. As to conditions: compound 0.5 µM; ATP 10 µM.
For `N#CC(C#N)=C(N)/C(C#N)=C/c1ccc(O)cc1`, the residual activity is 100%.
The same measure, in the same setting: the figure for `COc1cc2ncnc(Nc3cccc(Cl)c3)c2cc1OC` is 98.1%; for `O=C1NC(=O)c2c1c1c3ccccc3n3c1c1c2c2ccccc2n1C1CCC3O1` it is 3.75%.

Another test concerns the target CAMK2B (human) (UniProt Q13554). The description is as above. As to conditions: compound 0.5 µM; ATP 10 µM.
In the case of `N#CC(C#N)=C(N)/C(C#N)=C/c1ccc(O)cc1`, the residual activity was 93.3%.
Take `COc1cc2ncnc(Nc3cccc(Cl)c3)c2cc1OC`: the residual activity was found to be 91.2%.
Same read-out and setting: as for `O=C1NC(=O)c2c1c1c3ccccc3n3c1c1c2c2ccccc2n1C1CCC3O1`, the figure is 9.85%.

A further test deals with CDK6 CCND3 (human) (UniProt P30281+Q00534). The description is as above. The conditions noted are these: compound 0.5 µM; ATP 10 µM.
CDK6 CCND3 (human), sequence (P30281 whole entry, looked up): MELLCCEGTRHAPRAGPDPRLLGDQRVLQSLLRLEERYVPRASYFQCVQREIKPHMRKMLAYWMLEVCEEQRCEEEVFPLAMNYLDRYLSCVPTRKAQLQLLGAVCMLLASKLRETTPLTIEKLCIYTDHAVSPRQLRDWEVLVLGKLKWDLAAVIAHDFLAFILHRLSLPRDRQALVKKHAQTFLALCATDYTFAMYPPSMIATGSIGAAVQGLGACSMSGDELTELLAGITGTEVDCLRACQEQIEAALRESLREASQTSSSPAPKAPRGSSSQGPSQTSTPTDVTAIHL
CDK6 CCND3 (human), sequence (Q00534 whole entry, looked up): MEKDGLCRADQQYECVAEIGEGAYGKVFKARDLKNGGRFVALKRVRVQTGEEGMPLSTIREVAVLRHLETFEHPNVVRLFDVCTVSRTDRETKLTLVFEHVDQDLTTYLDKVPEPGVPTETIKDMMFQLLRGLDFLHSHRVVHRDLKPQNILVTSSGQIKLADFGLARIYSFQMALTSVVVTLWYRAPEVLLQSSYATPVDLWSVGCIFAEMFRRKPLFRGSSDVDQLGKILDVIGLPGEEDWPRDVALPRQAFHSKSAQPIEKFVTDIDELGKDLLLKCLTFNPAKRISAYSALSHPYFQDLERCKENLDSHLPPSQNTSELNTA
Turning to `N#CC(C#N)=C(N)/C(C#N)=C/c1ccc(O)cc1`, the residual activity came to 100%.
On to `COc1cc2ncnc(Nc3cccc(Cl)c3)c2cc1OC`, for which the residual activity turned out to be 90.1%.
With `O=C1NC(=O)c2c1c1c3ccccc3n3c1c1c2c2ccccc2n1C1CCC3O1`, the residual activity was 19.9%.

Another test addresses SYK (human) (UniProt P43405). The test is described as above. The conditions noted are these: compound 0.5 µM; ATP 10 µM.
As for `N#CC(C#N)=C(N)/C(C#N)=C/c1ccc(O)cc1`, the residual activity worked out at 101%.
As to `COc1cc2ncnc(Nc3cccc(Cl)c3)c2cc1OC`, the residual activity turned out to be 86.9%.
Same read-out and setting: the figure for `O=C1NC(=O)c2c1c1c3ccccc3n3c1c1c2c2ccccc2n1C1CCC3O1` is 15.8%.

For another test, the target named is IRAK1 (human) (UniProt P51617). The test is described as above. The conditions noted are these: compound 0.5 µM; ATP 10 µM.
IRAK1 (human), sequence (P51617 whole entry, looked up): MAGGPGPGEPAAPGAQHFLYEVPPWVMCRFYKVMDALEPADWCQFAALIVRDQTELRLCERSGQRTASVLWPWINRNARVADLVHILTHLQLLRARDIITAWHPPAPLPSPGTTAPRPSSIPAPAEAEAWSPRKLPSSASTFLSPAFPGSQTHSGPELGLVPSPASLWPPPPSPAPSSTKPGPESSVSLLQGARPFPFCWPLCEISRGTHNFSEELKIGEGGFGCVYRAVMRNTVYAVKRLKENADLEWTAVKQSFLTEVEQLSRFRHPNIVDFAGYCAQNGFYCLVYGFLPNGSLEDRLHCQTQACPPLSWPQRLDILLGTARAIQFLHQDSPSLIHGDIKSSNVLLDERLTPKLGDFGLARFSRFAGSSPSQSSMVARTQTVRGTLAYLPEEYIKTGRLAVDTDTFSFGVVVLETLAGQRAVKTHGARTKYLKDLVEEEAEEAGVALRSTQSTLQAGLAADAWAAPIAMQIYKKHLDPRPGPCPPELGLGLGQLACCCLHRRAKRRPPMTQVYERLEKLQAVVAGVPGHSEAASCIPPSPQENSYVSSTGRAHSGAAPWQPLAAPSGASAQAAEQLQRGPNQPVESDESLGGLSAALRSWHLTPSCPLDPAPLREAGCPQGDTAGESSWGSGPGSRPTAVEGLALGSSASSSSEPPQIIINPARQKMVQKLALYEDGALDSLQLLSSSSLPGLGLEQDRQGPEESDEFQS
For the molecule `N#CC(C#N)=C(N)/C(C#N)=C/c1ccc(O)cc1`, the residual activity turned out to be 123%.
Same read-out and setting: the figure for `COc1cc2ncnc(Nc3cccc(Cl)c3)c2cc1OC` is 86.6%; for `O=C1NC(=O)c2c1c1c3ccccc3n3c1c1c2c2ccccc2n1C1CCC3O1` it is 37.5%.

The next test has as its target PRKG1 (human) (UniProt Q13976). Described as above. As to conditions: compound 0.5 µM; ATP 10 µM.
`N#CC(C#N)=C(N)/C(C#N)=C/c1ccc(O)cc1`: the residual activity was 89.5% and 91.3%.
The same measure, in the same setting: as for `COc1cc2ncnc(Nc3cccc(Cl)c3)c2cc1OC`, the figure is 93.8% and 95.2%.
For the molecule `O=C1NC(=O)c2c1c1c3ccccc3n3c1c1c2c2ccccc2n1C1CCC3O1`, the residual activity was 35.7% and 41.3%.

In a further test the target is CLK1 (human) (UniProt P49759). The description is as above. As to conditions: compound 0.5 µM; ATP 10 µM.
CLK1 (human), sequence (P49759 whole entry, looked up): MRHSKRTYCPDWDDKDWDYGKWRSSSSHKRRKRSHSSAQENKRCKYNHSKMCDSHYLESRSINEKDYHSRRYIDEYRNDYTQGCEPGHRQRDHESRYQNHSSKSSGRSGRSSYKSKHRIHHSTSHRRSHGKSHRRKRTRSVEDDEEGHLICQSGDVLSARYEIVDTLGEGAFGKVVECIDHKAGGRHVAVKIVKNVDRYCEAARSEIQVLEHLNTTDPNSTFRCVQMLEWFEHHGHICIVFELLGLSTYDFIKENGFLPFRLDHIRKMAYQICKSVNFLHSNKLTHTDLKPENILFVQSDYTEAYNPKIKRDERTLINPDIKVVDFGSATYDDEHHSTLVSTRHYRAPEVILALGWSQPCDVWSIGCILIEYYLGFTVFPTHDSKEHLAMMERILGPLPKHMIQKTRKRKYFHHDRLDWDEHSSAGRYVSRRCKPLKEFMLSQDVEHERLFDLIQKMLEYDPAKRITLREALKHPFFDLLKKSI
For the molecule `N#CC(C#N)=C(N)/C(C#N)=C/c1ccc(O)cc1`, the residual activity is 96.5%.
As for `COc1cc2ncnc(Nc3cccc(Cl)c3)c2cc1OC`, the residual activity was found to be 103%.
Same read-out and setting: the figure for `O=C1NC(=O)c2c1c1c3ccccc3n3c1c1c2c2ccccc2n1C1CCC3O1` is 43.1%.

The next test concerns the target HIPK1 (human) (UniProt Q86Z02). The description is as above. The conditions noted are these: compound 0.5 µM; ATP 10 µM.
Regarding `N#CC(C#N)=C(N)/C(C#N)=C/c1ccc(O)cc1`, the residual activity was determined as 103%.
On the same count and under the same terms, as for `COc1cc2ncnc(Nc3cccc(Cl)c3)c2cc1OC`, the figure is 98.7%; as for `O=C1NC(=O)c2c1c1c3ccccc3n3c1c1c2c2ccccc2n1C1CCC3O1`, 93.6%.

A further test has as its target TBK1 (human) (UniProt Q9UHD2). The description is as above. The conditions noted are these: compound 0.5 µM; ATP 10 µM.
For the molecule `N#CC(C#N)=C(N)/C(C#N)=C/c1ccc(O)cc1`, the residual activity amounted to 91.1%.
Same read-out and setting: as for `COc1cc2ncnc(Nc3cccc(Cl)c3)c2cc1OC`, the figure is 78%; as for `O=C1NC(=O)c2c1c1c3ccccc3n3c1c1c2c2ccccc2n1C1CCC3O1`, 7.4%.

Another test deals with SRPK2 (human) (UniProt P78362). The test is described as above. The conditions noted are these: compound 0.5 µM; ATP 10 µM.
SRPK2 (human), sequence (P78362 whole entry, looked up): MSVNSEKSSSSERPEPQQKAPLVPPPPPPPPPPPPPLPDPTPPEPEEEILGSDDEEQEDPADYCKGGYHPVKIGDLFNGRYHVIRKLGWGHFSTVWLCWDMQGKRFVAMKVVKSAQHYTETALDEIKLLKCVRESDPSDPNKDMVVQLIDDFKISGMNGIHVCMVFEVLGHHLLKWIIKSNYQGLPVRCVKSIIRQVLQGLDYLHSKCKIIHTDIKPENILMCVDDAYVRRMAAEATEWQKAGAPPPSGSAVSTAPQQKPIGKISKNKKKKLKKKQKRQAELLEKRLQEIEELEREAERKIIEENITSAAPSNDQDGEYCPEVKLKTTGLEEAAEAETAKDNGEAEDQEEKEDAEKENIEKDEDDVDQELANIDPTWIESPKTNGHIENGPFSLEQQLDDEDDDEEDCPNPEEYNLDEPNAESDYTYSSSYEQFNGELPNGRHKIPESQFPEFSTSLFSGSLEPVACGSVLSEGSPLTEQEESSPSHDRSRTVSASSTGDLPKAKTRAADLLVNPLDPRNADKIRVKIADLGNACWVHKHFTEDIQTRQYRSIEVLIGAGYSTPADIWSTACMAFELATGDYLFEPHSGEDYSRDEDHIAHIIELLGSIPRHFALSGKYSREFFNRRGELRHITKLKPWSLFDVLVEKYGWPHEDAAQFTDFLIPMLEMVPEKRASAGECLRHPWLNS
In the case of `N#CC(C#N)=C(N)/C(C#N)=C/c1ccc(O)cc1`, the residual activity was found to be 88.8%.
On the same count and under the same terms, the figure for `COc1cc2ncnc(Nc3cccc(Cl)c3)c2cc1OC` is 88.2%; for `O=C1NC(=O)c2c1c1c3ccccc3n3c1c1c2c2ccccc2n1C1CCC3O1` it is 107%.

The target of the next test is STK38 (human) (UniProt Q15208). Described as above. As to conditions: compound 0.5 µM; ATP 10 µM.
STK38 (human), sequence (Q15208 whole entry, looked up): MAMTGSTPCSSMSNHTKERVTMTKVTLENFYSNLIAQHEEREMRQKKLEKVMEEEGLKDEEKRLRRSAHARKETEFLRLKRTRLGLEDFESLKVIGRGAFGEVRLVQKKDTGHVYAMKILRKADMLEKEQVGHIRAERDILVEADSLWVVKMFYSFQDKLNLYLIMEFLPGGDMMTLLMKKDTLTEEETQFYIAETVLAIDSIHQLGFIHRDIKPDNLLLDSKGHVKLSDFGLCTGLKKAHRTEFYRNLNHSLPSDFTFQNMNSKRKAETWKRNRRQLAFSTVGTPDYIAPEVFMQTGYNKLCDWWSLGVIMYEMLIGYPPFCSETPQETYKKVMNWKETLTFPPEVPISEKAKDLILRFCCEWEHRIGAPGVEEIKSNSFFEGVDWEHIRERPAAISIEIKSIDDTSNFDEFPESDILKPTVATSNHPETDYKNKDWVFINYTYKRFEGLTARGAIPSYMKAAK
Turning to `N#CC(C#N)=C(N)/C(C#N)=C/c1ccc(O)cc1`, the residual activity stood at 96.9%.
Turning to `COc1cc2ncnc(Nc3cccc(Cl)c3)c2cc1OC`, the residual activity amounted to 104%.
The same measure, in the same setting: the figure for `O=C1NC(=O)c2c1c1c3ccccc3n3c1c1c2c2ccccc2n1C1CCC3O1` is 46.2%.

Another test deals with CAMK2G (human) (UniProt Q13555). Described as above. The conditions noted are these: compound 0.5 µM; ATP 10 µM.
CAMK2G (human), sequence (Q13555 whole entry, looked up): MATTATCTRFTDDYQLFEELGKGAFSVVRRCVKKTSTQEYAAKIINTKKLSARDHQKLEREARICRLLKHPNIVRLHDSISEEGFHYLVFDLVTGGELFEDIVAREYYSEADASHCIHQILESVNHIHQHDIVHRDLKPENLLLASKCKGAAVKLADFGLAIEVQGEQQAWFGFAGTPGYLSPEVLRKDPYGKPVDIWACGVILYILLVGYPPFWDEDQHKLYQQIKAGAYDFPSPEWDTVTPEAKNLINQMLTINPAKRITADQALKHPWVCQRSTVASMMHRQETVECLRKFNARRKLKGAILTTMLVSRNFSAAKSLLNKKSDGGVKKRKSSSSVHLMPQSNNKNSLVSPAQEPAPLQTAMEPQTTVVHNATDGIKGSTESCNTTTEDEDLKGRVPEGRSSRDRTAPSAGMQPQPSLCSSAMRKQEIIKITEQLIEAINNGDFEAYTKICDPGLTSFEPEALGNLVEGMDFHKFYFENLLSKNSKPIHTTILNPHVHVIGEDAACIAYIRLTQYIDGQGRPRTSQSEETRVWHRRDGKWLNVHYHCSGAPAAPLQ
Take `N#CC(C#N)=C(N)/C(C#N)=C/c1ccc(O)cc1`: the residual activity was found to be 89.4%.
Consider `COc1cc2ncnc(Nc3cccc(Cl)c3)c2cc1OC`, for which the residual activity amounted to 97.3%.
For the molecule `O=C1NC(=O)c2c1c1c3ccccc3n3c1c1c2c2ccccc2n1C1CCC3O1`, the residual activity was determined as 8.36%.

A further test has as its target SRPK3 (human) (UniProt Q9UPE1). The test is described as above. As to conditions: compound 0.5 µM; ATP 10 µM.
In the case of `N#CC(C#N)=C(N)/C(C#N)=C/c1ccc(O)cc1`, the residual activity was 96.4%.
On the same count and under the same terms, the figure for `COc1cc2ncnc(Nc3cccc(Cl)c3)c2cc1OC` is 90.1%.
The same measure, in the same setting: as for `O=C1NC(=O)c2c1c1c3ccccc3n3c1c1c2c2ccccc2n1C1CCC3O1`, the figure is 63.6%.

The next test deals with TSSK2 (human) (UniProt Q96PF2). Described as above. The conditions noted are these: compound 0.5 µM; ATP 10 µM.
As to `N#CC(C#N)=C(N)/C(C#N)=C/c1ccc(O)cc1`, the residual activity worked out at 94.6%.
On the same count and under the same terms, the figure for `COc1cc2ncnc(Nc3cccc(Cl)c3)c2cc1OC` is 94.8%.
On the same count and under the same terms, as for `O=C1NC(=O)c2c1c1c3ccccc3n3c1c1c2c2ccccc2n1C1CCC3O1`, the figure is 87.1%.

In a further test the target is RET (human) (UniProt P07949). The description is as above. As to conditions: compound 0.5 µM; ATP 10 µM.
For the molecule `N#CC(C#N)=C(N)/C(C#N)=C/c1ccc(O)cc1`, the residual activity was 110%.
For the molecule `COc1cc2ncnc(Nc3cccc(Cl)c3)c2cc1OC`, the residual activity was 35.3%.
Still for that read-out and setting: as for `O=C1NC(=O)c2c1c1c3ccccc3n3c1c1c2c2ccccc2n1C1CCC3O1`, the figure is 3.21%.

The target in the next test is PBK (human) (UniProt Q96KB5). Described as above. As to conditions: compound 0.5 µM; ATP 10 µM.
PBK (human), sequence (Q96KB5 whole entry, looked up): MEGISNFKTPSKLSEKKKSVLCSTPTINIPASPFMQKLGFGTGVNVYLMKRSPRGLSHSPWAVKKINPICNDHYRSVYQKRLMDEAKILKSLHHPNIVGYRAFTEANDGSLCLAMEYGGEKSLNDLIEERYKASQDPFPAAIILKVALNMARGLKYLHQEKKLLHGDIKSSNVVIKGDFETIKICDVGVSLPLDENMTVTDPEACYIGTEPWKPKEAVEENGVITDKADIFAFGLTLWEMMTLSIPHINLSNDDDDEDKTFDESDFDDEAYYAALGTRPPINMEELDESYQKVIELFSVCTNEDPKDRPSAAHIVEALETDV
With `N#CC(C#N)=C(N)/C(C#N)=C/c1ccc(O)cc1`, the residual activity was 96.4%.
Still for that read-out and setting: the figure for `COc1cc2ncnc(Nc3cccc(Cl)c3)c2cc1OC` is 70.9%.
Regarding `O=C1NC(=O)c2c1c1c3ccccc3n3c1c1c2c2ccccc2n1C1CCC3O1`, the residual activity amounted to 39.9%.

A further test concerns the target FRK (human) (UniProt P42685). The description is as above. As to conditions: compound 0.5 µM; ATP 10 µM.
On to `N#CC(C#N)=C(N)/C(C#N)=C/c1ccc(O)cc1`, for which the residual activity turned out to be 99%.
As to `COc1cc2ncnc(Nc3cccc(Cl)c3)c2cc1OC`, the residual activity is 81.1%.
On to `O=C1NC(=O)c2c1c1c3ccccc3n3c1c1c2c2ccccc2n1C1CCC3O1`, for which the residual activity amounted to 102%.

A further test deals with MKNK2 (human) (UniProt Q9HBH9). The test is described as above. The conditions noted are these: compound 0.5 µM; ATP 10 µM.
MKNK2 (human), sequence (Q9HBH9 whole entry, looked up): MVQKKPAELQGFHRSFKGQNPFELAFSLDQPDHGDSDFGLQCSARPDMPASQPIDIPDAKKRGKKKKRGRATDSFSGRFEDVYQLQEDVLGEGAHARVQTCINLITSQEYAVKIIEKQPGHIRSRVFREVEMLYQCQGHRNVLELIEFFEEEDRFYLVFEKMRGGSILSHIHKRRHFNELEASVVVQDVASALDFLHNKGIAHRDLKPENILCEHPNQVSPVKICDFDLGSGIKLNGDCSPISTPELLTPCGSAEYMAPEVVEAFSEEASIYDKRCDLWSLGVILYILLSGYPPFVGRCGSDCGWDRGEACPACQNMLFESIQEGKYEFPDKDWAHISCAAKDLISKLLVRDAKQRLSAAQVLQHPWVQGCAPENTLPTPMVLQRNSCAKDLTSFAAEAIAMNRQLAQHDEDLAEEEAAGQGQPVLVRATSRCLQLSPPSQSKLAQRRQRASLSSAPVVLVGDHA
Regarding `N#CC(C#N)=C(N)/C(C#N)=C/c1ccc(O)cc1`, the residual activity came out at 79.1%.
The same measure, in the same setting: the figure for `COc1cc2ncnc(Nc3cccc(Cl)c3)c2cc1OC` is 39.5%.
On to `O=C1NC(=O)c2c1c1c3ccccc3n3c1c1c2c2ccccc2n1C1CCC3O1`, for which the residual activity amounted to 9.71%.

A further test deals with TEC (human) (UniProt P42680). The test is described as above. As to conditions: compound 0.5 µM; ATP 10 µM.
Consider `N#CC(C#N)=C(N)/C(C#N)=C/c1ccc(O)cc1`, for which the residual activity is 94.7%.
Still for that read-out and setting: the figure for `COc1cc2ncnc(Nc3cccc(Cl)c3)c2cc1OC` is 126%.
Turning to `O=C1NC(=O)c2c1c1c3ccccc3n3c1c1c2c2ccccc2n1C1CCC3O1`, the residual activity came to 142%.
